Data on one compound can be found in ChEMBL document CHEMBL4414609, “High-Affinity Alkynyl Bisubstrate Inhibitors of Nicotinamide N-Methyltransferase (NNMT)” (J Med Chem, 2019).

Data set [1] deals with INMT (indolethylamine N-methyltransferase) (Homo sapiens, UniProt O95050). Kind of data set: Inhibition of wild type human INMT expressed in Escherichia coli at 10 uM using tryptamine as substrate in presence of SAM incubated for 30 mins by MTase-Glo assay relative to control. As to conditions: probe tryptamine.
For data set [2], the target named is T1, Histone-lysine N-methyltransferase EHMT1 (Homo sapiens, UniProt Q9H9B1).
T1 sequence (Q9H9B1 whole entry): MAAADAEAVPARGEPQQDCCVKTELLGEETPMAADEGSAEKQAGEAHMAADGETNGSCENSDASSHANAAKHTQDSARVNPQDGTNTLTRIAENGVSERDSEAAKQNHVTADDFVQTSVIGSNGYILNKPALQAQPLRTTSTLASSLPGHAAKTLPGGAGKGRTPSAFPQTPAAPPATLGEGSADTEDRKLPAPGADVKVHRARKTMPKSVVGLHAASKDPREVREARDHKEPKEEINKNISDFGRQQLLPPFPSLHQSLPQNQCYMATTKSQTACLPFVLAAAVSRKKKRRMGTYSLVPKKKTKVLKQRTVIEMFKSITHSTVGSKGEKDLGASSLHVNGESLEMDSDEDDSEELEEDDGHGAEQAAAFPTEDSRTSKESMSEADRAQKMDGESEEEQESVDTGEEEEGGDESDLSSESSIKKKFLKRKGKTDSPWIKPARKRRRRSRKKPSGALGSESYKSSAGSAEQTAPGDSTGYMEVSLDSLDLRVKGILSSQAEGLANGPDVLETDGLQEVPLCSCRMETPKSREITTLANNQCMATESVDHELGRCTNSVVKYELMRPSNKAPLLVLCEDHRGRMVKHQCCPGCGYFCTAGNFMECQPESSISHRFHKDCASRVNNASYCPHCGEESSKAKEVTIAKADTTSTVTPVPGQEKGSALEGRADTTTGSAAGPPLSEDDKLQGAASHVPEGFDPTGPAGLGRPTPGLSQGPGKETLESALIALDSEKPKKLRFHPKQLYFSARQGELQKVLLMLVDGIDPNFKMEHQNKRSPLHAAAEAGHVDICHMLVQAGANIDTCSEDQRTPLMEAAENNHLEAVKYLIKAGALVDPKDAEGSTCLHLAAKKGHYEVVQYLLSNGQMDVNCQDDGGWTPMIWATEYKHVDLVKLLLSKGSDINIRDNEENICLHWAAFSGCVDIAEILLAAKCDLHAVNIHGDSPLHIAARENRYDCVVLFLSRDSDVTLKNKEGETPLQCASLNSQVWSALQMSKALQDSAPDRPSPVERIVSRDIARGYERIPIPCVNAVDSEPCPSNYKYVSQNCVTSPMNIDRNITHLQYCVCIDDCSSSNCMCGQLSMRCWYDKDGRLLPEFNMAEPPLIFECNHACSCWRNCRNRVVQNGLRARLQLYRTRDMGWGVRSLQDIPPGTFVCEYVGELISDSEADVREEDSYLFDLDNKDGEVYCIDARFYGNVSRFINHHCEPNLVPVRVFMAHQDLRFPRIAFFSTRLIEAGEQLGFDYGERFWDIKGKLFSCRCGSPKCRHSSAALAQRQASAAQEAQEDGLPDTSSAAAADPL
Kind of data set: Inhibition of human EHMT1 expressed in Escherichia coli assessed as reduction in methylated histone H3 full length using histone H3 full length as substrate in presence of [3H] SAM incubated for 120 mins by scintillation counting.

The target in data set [3] is T2, GNMT (glycine N-methyltransferase) (Homo sapiens, UniProt Q14749).
T2 sequence (Q14749 whole entry): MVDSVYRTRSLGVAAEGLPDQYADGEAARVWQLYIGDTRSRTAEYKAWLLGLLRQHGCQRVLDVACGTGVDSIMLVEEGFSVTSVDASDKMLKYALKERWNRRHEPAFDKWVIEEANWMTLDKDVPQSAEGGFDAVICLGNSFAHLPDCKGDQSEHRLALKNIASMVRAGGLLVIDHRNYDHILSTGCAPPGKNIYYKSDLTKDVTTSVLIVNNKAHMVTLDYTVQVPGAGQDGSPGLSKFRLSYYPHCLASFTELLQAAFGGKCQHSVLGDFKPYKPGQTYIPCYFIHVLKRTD
Kind of data set: Inhibition of human GNMT expressed in Escherichia coli at 1 uM assessed as reduction in SAH level using glycine as substrate in presence of SAM incubated for 30 mins by LC-MS/MS analysis relative to control. As to conditions: recombinant human GNMT expressed in Escherichia coli, probe glycine.

Data set [4] addresses T3, PNMT (phenylethanolamine N-methyltransferase) (Homo sapiens, UniProt P11086).
T3 sequence (P11086 whole entry): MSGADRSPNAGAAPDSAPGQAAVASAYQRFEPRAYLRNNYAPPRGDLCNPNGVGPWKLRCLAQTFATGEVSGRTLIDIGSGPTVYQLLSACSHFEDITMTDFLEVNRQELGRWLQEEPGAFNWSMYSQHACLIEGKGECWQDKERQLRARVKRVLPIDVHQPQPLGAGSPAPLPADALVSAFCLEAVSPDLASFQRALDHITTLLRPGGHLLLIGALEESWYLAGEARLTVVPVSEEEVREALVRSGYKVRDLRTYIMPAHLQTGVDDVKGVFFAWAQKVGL
Kind of data set: Inhibition of human PNMT expressed in Escherichia coli at 1 uM assessed as reduction in SAH level using DL-normetanephrine as substrate in presence of SAM incubated for 45 mins by LC-MS/MS analysis relative to control. As to conditions: recombinant human PNMT expressed in Escherichia coli, probe DL-normetanephrine.

Data set [5] concerns the target T3, PNMT (phenylethanolamine N-methyltransferase). Kind of data set: Inhibition of human PNMT expressed in Escherichia coli at 10 uM assessed as reduction in SAH level using DL-normetanephrine as substrate in presence of SAM incubated for 45 mins by LC-MS/MS analysis relative to control. As to conditions: recombinant human PNMT expressed in Escherichia coli, probe DL-normetanephrine.

Data set [6] concerns the target GAMT (guanidinoacetate N-methyltransferase) (Homo sapiens, UniProt Q14353). Kind of data set: Inhibition of human GAMT expressed in Escherichia coli at 1 uM assessed as reduction in SAH level using guanidineacetic acid as substrate in presence of SAM incubated for 30 mins by LC-MS/MS analysis relative to control. As to conditions: recombinant human GAMT expressed in Escherichia coli, probe guanidineacetic acid.

Data set [7] concerns the target Protein arginine N-methyltransferase 1 (Homo sapiens, UniProt Q99873). Kind of data set: Inhibition of human PRMT1 expressed in Escherichia coli assessed as reduction in methylated histone H4 full length level using histone H4 full length as substrate in presence of [3H] SAM incubated for 20 mins by scintillation counting.

Sequence of INMT (indolethylamine N-methyltransferase) (O95050 whole entry): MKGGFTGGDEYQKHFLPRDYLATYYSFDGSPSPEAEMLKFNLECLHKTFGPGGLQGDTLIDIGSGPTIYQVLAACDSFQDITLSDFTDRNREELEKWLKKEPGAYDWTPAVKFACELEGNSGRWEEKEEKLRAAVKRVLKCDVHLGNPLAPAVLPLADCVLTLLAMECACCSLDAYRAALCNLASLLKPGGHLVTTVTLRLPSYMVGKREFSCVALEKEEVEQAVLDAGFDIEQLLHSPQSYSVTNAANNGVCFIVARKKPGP
Sequence of Protein arginine N-methyltransferase 1 (Q99873 whole entry): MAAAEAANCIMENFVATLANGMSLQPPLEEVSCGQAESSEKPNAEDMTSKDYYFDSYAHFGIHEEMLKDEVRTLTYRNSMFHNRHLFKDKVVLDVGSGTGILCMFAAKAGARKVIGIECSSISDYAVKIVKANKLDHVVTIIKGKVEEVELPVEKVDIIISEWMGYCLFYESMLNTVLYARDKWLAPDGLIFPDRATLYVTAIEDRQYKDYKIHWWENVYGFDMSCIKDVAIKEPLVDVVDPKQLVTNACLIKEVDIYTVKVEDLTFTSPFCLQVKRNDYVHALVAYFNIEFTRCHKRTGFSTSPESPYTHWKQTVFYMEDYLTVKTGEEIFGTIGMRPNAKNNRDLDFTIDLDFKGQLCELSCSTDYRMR

For the compound `NC(=O)c1cccc(C#C[C@@H](CC[C@H](N)C(=O)O)C[C@H]2O[C@@H](n3cnc4c(N)ncnc43)[C@H](O)[C@@H]2O)c1`, the inhibition (in general, the share of the control response that was lost under treatment) at 0.5 h, 10 µM in data set [1] stood at 53%. In addition, the IC50 in data set [2] and in data set [7] was above 10 µM throughout. The inhibition at 0.5 h, 1 µM in data set [3] was determined as 4%; in data set [6] it was 0%. For the same compound, in data set [4], the inhibition at 0.75 h, 1 µM was found to be 0%. Moreover, in data set [5], the inhibition at 0.75 h, 10 µM stood at 26%.
